# Measurements from article PMC6595003, “Insights into real-time chemical processes in a calcium sensor protein-directed dynamic library” (Nature Communications, 2019).
# Where “and” joins values, the source holds several entries; their conditions need not be identical. Equal values may be shown once.
# Experiments:
# [1] = tested on: Drosophila model of Alzheimer's disease (motoneuron overexpression of human aβ42arc); experiment: Synapse number quantification at the neuromuscular junction of flies fed with compound; type: in vivo; conditions: vs DMSO
# Protocol: Aβ42arc overexpressing flies and the corresponding control (LacZ expression) were fed with 3b or the solvent, DMSO, throughout all life cycle (Fig. 9 and see Methods section).
# Fig. 9 In vivo effects of compound 3b. Flies with motoneuron overexpression of the human aβ42arc (arctic mutation) (D42Gal4 > aβ42arc) or mock expression (D42Gal4 > LacZ) were fed with 3b (100 μM) or same volume of vehicle DMSO. a Twenty-day old adult abdominal motoneurons were analyzed and synapse number (nc82-positive spots) of the same motoneuron in different flies (16–19) were determined using Imaris, over the confocal 1 µm stacks. […] Data are analyzed statistically with unpaired two-tailored Student’s t test; ***P < 0.001. b Locomotor activity of individual 15 days old flies was recorded for 4 days in Drosophila Activity Monitors (DAM2, Trikinetics)[36], the total number of beam breaks per hour during two consecutive days was analyzed (the activity of the first two days is considered the habituation period and is discarded). Mean ± SEM of three independent experiments with 5–12 flies per condition each, were plotted and analyzed statistically with paired two-tailed Student’s t-test, *P < 0.05. […]
# The Drosophila neuromuscular junction (NMJ) allows the accurate quantitative determination of the in vivo effects of drug application on a single glutamatergic synapse. […]
# [2] = Fly locomotor activity assay (DAM2 beam breaks); type: in vivo, Drosophila
# Protocol: (§1) Fig. 9 In vivo effects of compound 3b. Flies with motoneuron overexpression of the human aβ42arc (arctic mutation) (D42Gal4 > aβ42arc) or mock expression (D42Gal4 > LacZ) were fed with 3b (100 μM) or same volume of vehicle DMSO. a Twenty-day old adult abdominal motoneurons were analyzed and synapse number (nc82-positive spots) of the same motoneuron in different flies (16–19) were determined using Imaris, over the confocal 1 µm stacks. Data are plotted in graphs, where each grey triangle (aβ42arc flies fed with vehicle) and green triangle (aβ42arc flies fed with 3b) or each grey circle (control flies fed with vehicle) and green circle (control flies fed with 3b) represents one value. Horizontal line represents mean ± SEM. Data are analyzed statistically with unpaired two-tailored Student’s t test; ***P < 0.001. b Locomotor activity of individual 15 days old flies was recorded for 4 days in Drosophila Activity Monitors (DAM2, Trikinetics)[36], the total number of beam breaks per hour during two consecutive days was analyzed (the activity of the first two days is considered the habituation period and is discarded). Mean ± SEM of three independent experiments with 5–12 flies per condition each, were plotted and analyzed statistically with paired two-tailed Student’s t-test, *P < 0.05. Source data are provided as a Source Data file, ns non significant
# (§2) To measure the physiological impact of this synaptic recovery, we evaluated fly locomotor activity. As described previously, overexpression of human aβ42arc peptide leads to severe locomotor dysfunction starting at day 15–20 post-eclosion[35].
# (§3) Fifteen-day-old males were placed individually in locomotor activity monitor tubes (DAM2, TriKinetics Inc.) The DAM2 system automatically counts the number of beam breaks for flies walking in a horizontal tube over a specific period of time. This setup allowed for characterization of the locomotor and behavior rhythms of Drosophila. The tubes contained fly food with 100 µM compound 3b or same volume of DMSO. Flies were raised at 25 °C in 12-h light/12-h dark. In the first 2 days flies get habituated and the next 2 days the locomotor activity was quantified.
# [3] = tested on: Drosophila model of Alzheimer's disease (motoneuron overexpression of human aβ42arc); experiment: Fly locomotor activity assay (DAM2 beam breaks); type: in vivo
# Protocol: as §1, §2, §3
# [4] = target: T1, dNCS-1 (Drosophila melanogaster, UniProt Q9VWX8); experiment: tr-NOESY, DOSY and 1H-NMR of DCL mixtures in the presence of dNCS-1; type: binding; conditions: 281 K, up to 15 days
# T1 construct: made in house; host or cells: E. coli
# T1 sequence (Q9VWX8 1-187): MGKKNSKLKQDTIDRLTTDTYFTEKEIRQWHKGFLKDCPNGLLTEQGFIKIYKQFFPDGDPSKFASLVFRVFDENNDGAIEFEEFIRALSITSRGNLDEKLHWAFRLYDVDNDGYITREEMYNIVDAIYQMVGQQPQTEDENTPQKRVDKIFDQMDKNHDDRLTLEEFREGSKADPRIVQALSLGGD
# Protocol: Fig. 4 HPLC-MS and NMR studies of the full dynamic combinatorial library. a DCL chromatograms after 5 h in the absence and in the presence of dNCS-1. Conditions: aldehyde 1 (1.2 µL, 50 mM), 2a–2e (3.6 µL, 50 mM), catalyst (1 µL, 12 M), dNCS-1:1 [1:1], Tris buffer (20 mM, pH 7.4), 1 mM CaCl2, 0.5 M NaCl, 1 mM DTT, T = 4 °C, 2% DMSO. DCC experiments were carried out in triplicate. b 1D-^1H NMR spectrum (red) of the mixture and DOSY experiment (black) of the DCL in the presence of dNCS-1 (281 K, 600 MHz). c Tr-NOESY spectrum of the DCL mixture in the presence of dNCS-1 (mixing time 200 ms, 281 K, 600 MHz). Amplification of the region δ 7.2–8.0 ppm. […]. The new signals that reveal the formation of 3b (aromatic region) and 2c (aliphatic region) are marked with stars. ^1H-STD-NMR (blue) and off-resonance (red) NMR spectra of the mixture 2b + 3c + dNCS-1 (281 K, 600 MHz) after 15 days
# DOSY-NMR and tr-NOESY-NMR experiments were also recorded to follow the exchange process.
# The experiments were performed on the same samples and spectrometer, at 281 K. The tr-NOESY mixing time was fixed at 200 ms. The DOSY experiments were acquired with 16 gradient increments to a final intensity decay of 90%.
# [5] = 100 μM in food, one value per fly
compound,measurement,setting,value
O=C(Cc1c[nH]c2ccccc12)NN=Cc1ccc([N+](=O)[O-])c(O)c1 (mixture of isomers) [3b],synapse number in aβ42arc flies,"[1]; fed 100 μM throughout life cycle, 20-day old adults",pathological phenotype was largely suppressed
same,synapse number in control (LacZ) flies,[1]; fed 100 μM,no effect
same,"beam breaks per hour of individual flies, control + 3b, Experiment 1",[2]; [5],102 and 219 and 449 and 504 and 422 and 192 and 564
same,"beam breaks per hour of individual flies, control + 3b, Experiment 2",[2]; [5],281 and 38 and 295 and 200 and 178 and 147
same,"beam breaks per hour of individual flies, control + 3b, Experiment 3",[2]; [5],81 and 263 and 78 and 204 and 169
same,locomotor activity of control flies,"[2]; fed 100 μM, vs DMSO",does not reveal a significant difference
same,"beam breaks per hour of individual flies, aβ42arc + 3b, Experiment 1",[3]; [5],327 and 264 and 198 and 235 and 195 and 320 and 256 and 104 and 272 and 274 and 106 and 220
same,"beam breaks per hour of individual flies, aβ42arc + 3b, Experiment 2",[3]; [5],295 and 321 and 87 and 159 and 125 and 199 and 157 and 279 and 287 and 274
same,"beam breaks per hour of individual flies, aβ42arc + 3b, Experiment 3",[3]; [5],140 and 89 and 136 and 171 and 263 and 178 and 216 and 151 and 91 and 146 and 160
same,locomotor activity of aβ42arc flies,"[3]; fed 100 μM, 15 days old flies, vs DMSO",locomotor deficit was recovered
same,binding to dNCS-1 (1H-NMR evolution of the mixture 3c + 2b with dNCS-1),[4],a dNCS-1 ligand
